In patent US20250115669A1, “FGFR1/KLB Targeting Agonistic Antigen-Binding Proteins and Conjugates Thereof with GLP-1R Agonistic Peptides” (SANOFI, priority 2020, published 2025):
Where two headings read alike, the source gives them in different places. Peptide text beside a SMILES is read from it.

Legend:
Format in all cases: cell-based
[1] = target: T1, human glucagon (GCG) receptor (Homo sapiens, UniProt P47871); test: HTRF cAMP assay in HEK-293 cells expressing human glucagon receptor
T1 construct: expressed in transfected cells; host or cells: PSC-HEK-293
T1 sequence (P47871 26-477): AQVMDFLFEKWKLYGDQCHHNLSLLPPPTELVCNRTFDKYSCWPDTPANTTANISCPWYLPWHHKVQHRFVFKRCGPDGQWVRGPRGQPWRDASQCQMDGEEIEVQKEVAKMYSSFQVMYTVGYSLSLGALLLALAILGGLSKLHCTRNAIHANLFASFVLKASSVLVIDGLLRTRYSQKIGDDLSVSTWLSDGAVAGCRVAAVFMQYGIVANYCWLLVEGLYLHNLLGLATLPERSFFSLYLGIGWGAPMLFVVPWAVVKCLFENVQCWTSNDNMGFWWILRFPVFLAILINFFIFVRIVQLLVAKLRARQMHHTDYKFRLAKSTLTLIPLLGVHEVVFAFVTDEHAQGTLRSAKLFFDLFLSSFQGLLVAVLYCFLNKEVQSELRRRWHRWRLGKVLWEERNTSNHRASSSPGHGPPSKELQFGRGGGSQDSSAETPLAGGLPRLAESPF

[2] = target: T2, human GLP-1 receptor (Homo sapiens, UniProt P43220); test: HTRF cAMP assay in HEK-293 cells expressing human GLP-1 receptor
T2 construct: expressed in transfected cells; host or cells: PSC-HEK-293
T2 sequence (P43220 24-463): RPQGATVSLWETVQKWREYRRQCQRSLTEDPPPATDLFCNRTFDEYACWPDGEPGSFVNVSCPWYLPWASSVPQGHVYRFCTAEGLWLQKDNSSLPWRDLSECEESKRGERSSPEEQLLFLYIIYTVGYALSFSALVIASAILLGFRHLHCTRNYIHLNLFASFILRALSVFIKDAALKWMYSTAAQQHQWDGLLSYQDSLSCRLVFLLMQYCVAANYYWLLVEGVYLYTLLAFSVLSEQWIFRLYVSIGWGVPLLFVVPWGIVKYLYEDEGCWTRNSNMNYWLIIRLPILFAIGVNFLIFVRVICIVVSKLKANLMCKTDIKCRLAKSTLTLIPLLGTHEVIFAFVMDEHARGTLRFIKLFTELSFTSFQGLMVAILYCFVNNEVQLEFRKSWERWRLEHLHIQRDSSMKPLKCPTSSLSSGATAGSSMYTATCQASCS
Description: Each vial contained 1.8 ml cells. The vials were slowly frozen to −80° C. in isopropanol, and then transferred in liquid nitrogen for storage.
Cells were resuspended in assay buffer (cell buffer plus 2 mM IBMX) and adjusted to a cell density of 1 million cells/ml.
For measurement of cAMP generation, 5 μl cells (final 5000 cells/well) and 5 μl of test compound were added to a 384-well plate, followed by incubation for 30 min at room temperature.
The cAMP generated was determined using a kit from Cisbio Corp. based on HTRF (Homogenous Time Resolved Fluorescence). The cAMP assay was performed according to manufacturer's instructions (Cisbio).

[3] = target: T3, human GIP receptor (Homo sapiens, UniProt P48546); test: HTRF cAMP assay in HEK-293 cells expressing human GIP receptor
T3 construct: expressed in transfected cells; host or cells: PSC-HEK-293
T3 sequence (P48546 22-466): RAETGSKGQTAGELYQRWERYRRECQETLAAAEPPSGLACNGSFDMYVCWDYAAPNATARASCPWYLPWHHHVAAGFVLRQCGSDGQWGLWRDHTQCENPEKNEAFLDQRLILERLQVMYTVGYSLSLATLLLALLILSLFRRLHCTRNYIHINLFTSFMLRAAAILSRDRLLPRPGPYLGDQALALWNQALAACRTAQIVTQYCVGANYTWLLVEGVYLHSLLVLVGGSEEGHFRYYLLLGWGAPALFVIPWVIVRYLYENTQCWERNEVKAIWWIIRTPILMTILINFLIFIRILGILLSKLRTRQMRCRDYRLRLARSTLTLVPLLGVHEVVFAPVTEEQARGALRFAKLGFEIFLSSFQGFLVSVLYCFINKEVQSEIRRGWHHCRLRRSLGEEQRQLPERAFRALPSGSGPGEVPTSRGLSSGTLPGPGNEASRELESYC

[4] = HEK-293 cells, read-out: HTRF cAMP EC50 Human GCGR
[5] = HEK-293 cells, read-out: HTRF cAMP EC50 Human GLP-1R
[6] = HEK-293 cells, read-out: HTRF cAMP EC50 Human GIPR

With `CC[C@H](C)[C@H](NC(=O)[C@H](Cc1ccccc1)NC(=O)[C@H](CC(C)C)NC(=O)[C@H](CCC(N)=O)NC(=O)[C@@H](NC(=O)[C@H](CCCNC(=N)N)NC(=O)[C@H](CCC(=O)O)NC(=O)[C@H](CCC(=O)O)NC(=O)[C@H](CCC(=O)O)NC(=O)[C@H](CC(C)C)NC(=O)[C@H](CCC(N)=O)NC(=O)[C@H](CCCCN)NC(=O)[C@H](CO)NC(=O)[C@H](CC(C)C)NC(=O)[C@H](CC(=O)O)NC(=O)[C@H](CO)NC(=O)[C@@H](NC(=O)[C@H](Cc1ccccc1)NC(=O)[C@@H](NC(=O)CNC(=O)[C@H](CCC(=O)O)NC(=O)CNC(=O)[C@@H](N)Cc1c[nH]cn1)[C@@H](C)O)[C@@H](C)O)C(C)C)C(=O)N[C@@H](CCC(=O)O)C(=O)N[C@@H](Cc1c[nH]c2ccccc12)C(=O)N[C@@H](CC(C)C)C(=O)N[C@@H](CCCCN)C(=O)N[C@@H](C)C(=O)N[C@H](C(=O)NCC(=O)N1CCC[C@H]1C(=O)N[C@@H](CO)C(=O)N[C@@H](CO)C(=O)NCC(=O)N[C@@H](C)C(=O)N1CCC[C@H]1C(=O)N1CCC[C@H]1C(=O)N1CCC[C@H]1C(=O)N[C@@H](CO)C(N)=O)[C@@H](C)O` [Ab P008] (H-HGEGTFTSDLSKQLEEERVQLFIEWLKATGPSSGAPPPS-NH2) the EC50 [1] was over 10 nM, the EC50 [2] was 0.0232 nM and the EC50 [3] was over 10 nM.
`CC[C@H](C)[C@H](NC(=O)[C@H](CC(C)C)NC(=O)[C@H](Cc1c[nH]c2ccccc12)NC(=O)[C@H](Cc1ccc(O)cc1)NC(=O)[C@@H](NC(=O)[C@H](Cc1ccccc1)NC(=O)[C@H](CC(C)C)NC(=O)[C@H](CCCNC(=N)N)NC(=O)[C@H](CCC(N)=O)NC(=O)[C@H](CC(C)C)NC(=O)[C@H](CCCNC(=N)N)NC(=O)[C@H](CCCCN)NC(=O)[C@H](CCC(=O)O)NC(=O)[C@H](CC(C)C)NC(=O)[C@H](CCC(N)=O)NC(=O)[C@H](CCCCN)NC(=O)[C@H](CO)NC(=O)[C@H](CC(C)C)NC(=O)[C@H](CC(=O)O)NC(=O)[C@H](CO)NC(=O)[C@@H](NC(=O)[C@H](Cc1ccccc1)NC(=O)[C@@H](NC(=O)CNC(=O)[C@H](CCC(=O)O)NC(=O)CNC(=O)[C@@H](N)Cc1c[nH]cn1)[C@@H](C)O)[C@@H](C)O)[C@@H](C)CC)C(=O)N[C@@H](C)C(=O)NCC(=O)NCC(=O)N[C@@H](Cc1c[nH]cn1)C(=O)N[C@@H](CO)C(=O)N[C@@H](CO)C(=O)NCC(=O)N[C@@H](CCCCN)C(=O)N1CCC[C@H]1C(=O)N1CCC[C@H]1C(=O)N1CCC[C@H]1C(=O)N[C@@H](CCCCN)C(N)=O` [Ab P025] (H-HGEGTFTSDLSKQLEKRLQRLFIYWLIAGGHSSGKPPPK-NH2; N-terminus assumed) was tested, and the EC50 [1, 4] was 0.545 nM, the EC50 [2, 5] was 0.0016 nM and the EC50 [3, 6] was 1.6 nM.
Molecule `CC[C@H](C)[C@H](NC(=O)[C@H](Cc1ccccc1)NC(=O)[C@H](CC(C)C)NC(=O)[C@H](CCCNC(=N)N)NC(=O)[C@@H](NC(=O)[C@H](C)NC(=O)[C@H](CCC(=O)O)NC(=O)[C@H](CCC(=O)O)NC(=O)[C@H](CCC(=O)O)NC(=O)[C@H](CC(C)C)NC(=O)[C@H](CCC(N)=O)NC(=O)[C@H](CCCCN)NC(=O)[C@H](CO)NC(=O)[C@H](CCCCN)NC(=O)[C@H](CC(=O)O)NC(=O)[C@H](CO)NC(=O)[C@@H](NC(=O)[C@H](Cc1ccccc1)NC(=O)[C@@H](NC(=O)CNC(=O)[C@H](CCC(=O)O)NC(=O)CNC(=O)[C@H](Cc1c[nH]cn1)NC(=O)CN)[C@@H](C)O)[C@@H](C)O)C(C)C)C(=O)N[C@@H](CCC(=O)O)C(=O)N[C@@H](Cc1c[nH]c2ccccc12)C(=O)N[C@@H](CC(C)C)C(=O)N[C@@H](CCCCN)C(=O)N[C@@H](C)C(=O)NCC(=O)NCC(=O)N1CCC[C@H]1C(=O)N[C@@H](CCCCN)C(=O)N[C@@H](CCCCN)C(=O)N[C@H](C(=O)N[C@@H](CCCNC(=N)N)C(=O)N[C@@H](Cc1ccc(O)cc1)C(=O)N[C@@H](CO)C(N)=O)[C@@H](C)CC` [Ab P014] (H-GHGEGTFTSDKSKQLEEEAVRLFIEWLKAGGPKKIRYS-NH2; N-terminus assumed) has an EC50 [1, 4] of 5.4 nM, an EC50 [2, 5] of 0.0105 nM and an EC50 [3, 6] of over 10 nM.
